{"source": "patent US6620325B2", "about": "“Purification process for cyclosporin” (Novartis AG, priority 1996, dated 2003)", "key": {"[1]": {"test": "Distribution coefficient in n-heptane/isopropanol/water phase system", "assay_type": "physicochemical", "conditions": "lighter phase about 90% n-heptane/10% isopropanol; heavier phase about 32% isopropanol/68% water", "from_the_text": "The present applicants have found an n-heptane/isopropanol/water system to be effective for purifying 33-epi-chloro-33-desoxyascomycin. In one embodiment, the following phase system is used to purify 33-epi-chloro-33-desoxyascomycin: the lighter phase comprises a mixture in weight-% of about 90% n-heptane, e.g. 89%, and about 10% isopropanol, e.g. 11%; the heavier hase comprises a mixture of about 32% isopropanol, e.g. 31%, and about 68% water, e.g. 69%.\nThe distribution coefficient is defined herein as the ratio of the concentration (in g/unit volume) of product in the lighter phase to the concentration (in g/unit volume) of product in the heavier aqueous phase at 40° C. The following distribution coefficients are obtained for cyclosporins between 75% n-heptane /25% acetone as lighter organic phase, and 50% acetone 50% water as heavier aqueous phase:\nThe distribution coefficient for 33-epi-chloro-33-desoxyascomycin is found to be around 7.6 using the above n-heptane/isopropanol/water phase system. The selectivity of ascomycin derivative side product to 33-epi-chloro-33-desoxyascomycin is found to be approximately 1.44."}, "[2]": {"test": "Distribution coefficient of cyclosporins between lighter organic phase and heavier aqueous phase (n-heptane/acetone/water)", "assay_type": "physicochemical", "conditions": "conc. in lighter phase / conc. in heavier aqueous phase at 40° C.; 75% n-heptane/25% acetone vs 50% acetone/50% water", "experimental": "The distribution coefficient is defined herein as the ratio of the concentration (in g/unit volume) of product in the lighter phase to the concentration (in g/unit volume) of product in the heavier aqueous phase at 40° C."}}, "data": [{"compound": "CC[C@@H]1/C=C(\\C)C[C@H](C)C[C@H](OC)[C@H]2O[C@@](O)(C(=O)C(=O)N3CCCC[C@H]3C(=O)O[C@H](/C(C)=C/[C@@H]3CC[C@H](Cl)[C@H](OC)C3)[C@H](C)[C@@H](O)CC1=O)[C@H](C)C[C@@H]2OC", "note": "[33-epi-chloro-33-desoxyascomycin]", "values": [{"measurement": "Distribution coefficient", "setting": "[1]", "result": "around 7.6"}]}, {"compound": "C/C=C/C[C@@H](C)[C@@H](O)[C@H]1C(=O)N[C@@H](CC)C(=O)N(C)CC(=O)N(C)[C@@H](CC(C)C)C(=O)N[C@@H](C(C)C)C(=O)N[C@@H](CC(C)C)C(=O)N[C@@H](C)C(=O)N[C@H](C)C(=O)N(C)[C@@H](CC(C)C)C(=O)N(C)[C@@H](CC(C)C)C(=O)N(C)[C@@H](C(C)C)C(=O)N1C", "note": "[Cyclosporin U]", "values": [{"measurement": "Distribution coefficient (to one decimal place)", "setting": "[2]", "result": 0.6}]}, {"compound": "C/C=C/C[C@@H](C)[C@@H](O)[C@H]1C(=O)N[C@@H](C(C)C)C(=O)N(C)CC(=O)N(C)[C@@H](CC(C)C)C(=O)N[C@@H](C(C)C)C(=O)N(C)[C@@H](CC(C)C)C(=O)N[C@@H](C)C(=O)N[C@H](C)C(=O)N(C)[C@@H](CC(C)C)C(=O)N(C)[C@@H](CC(C)C)C(=O)N(C)[C@@H](C(C)C)C(=O)N1C", "note": "[Cyclosporin D]", "values": [{"measurement": "Distribution coefficient (to one decimal place)", "setting": "[2]", "result": 1.7}]}, {"compound": "C/C=C/C[C@@H](C)[C@@H](O)[C@@H]1NC(=O)[C@H](C(C)C)N(C)C(=O)[C@H](CC(C)C)N(C)C(=O)[C@H](CC(C)C)N(C)C(=O)[C@@H](C)NC(=O)[C@H](C)NC(=O)[C@H](CC(C)C)N(C)C(=O)[C@H](C(C)C)NC(=O)[C@H](CC(C)C)N(C)C(=O)CN(C)C(=O)[C@H](CC)NC1=O", "note": "[Cyclosporin L]", "values": [{"measurement": "Distribution coefficient (to one decimal place)", "setting": "[2]", "result": 0.5}]}, {"compound": "C/C=C/C[C@@H](C)[C@@H](O)[C@H]1C(=O)N[C@@H](CCC)C(=O)N(C)CC(=O)N(C)[C@@H](CC(C)C)C(=O)N[C@@H](C(C)C)C(=O)N(C)[C@@H](CC(C)C)C(=O)N[C@@H](C)C(=O)N[C@H](C)C(=O)N(C)[C@@H](CC(C)C)C(=O)N(C)[C@@H](CC(C)C)C(=O)N(C)[C@@H](C(C)C)C(=O)N1C", "note": "[Cyclosporin G]", "values": [{"measurement": "Distribution coefficient (to one decimal place)", "setting": "[2]", "result": 1.3}]}, {"compound": "C/C=C/C[C@@H](C)[C@@H](O)[C@H]1C(=O)N[C@@H](C)C(=O)N(C)CC(=O)N(C)[C@@H](CC(C)C)C(=O)N[C@@H](C(C)C)C(=O)N(C)[C@@H](CC(C)C)C(=O)N[C@@H](C)C(=O)N[C@H](C)C(=O)N(C)[C@@H](CC(C)C)C(=O)N(C)[C@@H](CC(C)C)C(=O)N(C)[C@@H](C(C)C)C(=O)N1C", "note": "[Cyclosporin B]", "values": [{"measurement": "Distribution coefficient (to one decimal place)", "setting": "[2]", "result": 0.4}]}, {"compound": "C/C=C/C[C@@H](C)[C@@H](O)[C@H]1C(=O)N[C@@H]([C@@H](C)O)C(=O)N(C)CC(=O)N(C)[C@@H](CC(C)C)C(=O)N[C@@H](C(C)C)C(=O)N(C)[C@@H](CC(C)C)C(=O)N[C@@H](C)C(=O)N[C@H](C)C(=O)N(C)[C@@H](CC(C)C)C(=O)N(C)[C@@H](CC(C)C)C(=O)N(C)[C@@H](C(C)C)C(=O)N1C", "note": "[Cyclosporin C]", "values": [{"measurement": "Distribution coefficient (to one decimal place)", "setting": "[2]", "result": 0.3}]}, {"compound": "CCCC[C@@H](C)[C@@H](O)[C@H]1C(=O)N[C@@H](CC)C(=O)N(C)CC(=O)N(C)[C@@H](CC(C)C)C(=O)N[C@@H](C(C)C)C(=O)N(C)[C@@H](CC(C)C)C(=O)N[C@@H](C)C(=O)N[C@H](C)C(=O)N(C)[C@@H](CC(C)C)C(=O)N(C)[C@@H](CC(C)C)C(=O)N(C)[C@@H](C(C)C)C(=O)N1C", "note": "[Cyclosporin Dihydro-A, dihydro-Cyclosporin A]", "values": [{"measurement": "Distribution coefficient (to one decimal place)", "setting": "[2]", "result": 1.0}]}]}
